The target of assay [1] is T1, human α1D adrenergic receptor (Homo sapiens, UniProt P25100).
T1 construct: host or cells: LM(tk-) cells, line L-α1A
T1 sequence (P25100 1-572): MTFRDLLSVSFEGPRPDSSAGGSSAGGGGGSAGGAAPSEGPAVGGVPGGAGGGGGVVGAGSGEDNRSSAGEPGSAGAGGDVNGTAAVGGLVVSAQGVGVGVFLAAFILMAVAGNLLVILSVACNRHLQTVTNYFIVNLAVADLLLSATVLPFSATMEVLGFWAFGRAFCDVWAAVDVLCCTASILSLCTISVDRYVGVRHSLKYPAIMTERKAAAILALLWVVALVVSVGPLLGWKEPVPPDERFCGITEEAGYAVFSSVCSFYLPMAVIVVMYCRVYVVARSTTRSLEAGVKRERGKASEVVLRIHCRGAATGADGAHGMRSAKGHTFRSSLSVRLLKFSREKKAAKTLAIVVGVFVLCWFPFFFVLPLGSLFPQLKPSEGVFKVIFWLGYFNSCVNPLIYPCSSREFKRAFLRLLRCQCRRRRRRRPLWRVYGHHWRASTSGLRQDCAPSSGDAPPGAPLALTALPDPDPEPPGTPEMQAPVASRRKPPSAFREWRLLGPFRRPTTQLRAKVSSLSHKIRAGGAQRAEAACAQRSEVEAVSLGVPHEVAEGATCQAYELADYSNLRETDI
The assay can be described thus: Binding at human α1D adrenergic receptor. The conditions noted are these: Table 8; read-out: hα1D Ki. An excerpt:
(§1) α1 Human Adrenergic Receptors: To determine the binding of compounds to human α1 receptors, LM(tk−) cell lines stably transfected with the genes encoding the α1a, α1b, and α1d receptors were used. The nomenclature describing the α1 receptors was changed recently, such that the receptor formerly designated α1a is now designated α1d, and the receptor formerly designated α1c is now designated α1a. The cell lines expressing these receptors were deposited with the ATCC before the nomenclature change and reflect the subtype designations formerly assigned to these receptors. Thus, the cell line expressing the receptor described herein as the α1a receptor was deposited with the ATCC on Sep. […] The cell line expressing receptor described herein as the α1d receptor was deposited with the ATCC on Sep. […] The cell line expressing the α1b receptor is designated L-α1B, and was deposited on Sep.
(§2) The binding affinity (Ki) of these compounds were tested according to the protocols described herein at the following receptors; human α1A, α1B, α1D, α2A, α2B, and α2C adrenergic receptors; human Y1, Y2, Y4, and Y5 receptors; and N-Methyl-D-aspartic acid (NMDA) receptor channels. The binding interactions of these compounds were additionally tested at the norepinephrine (NE) transporter (NE uptake) and serotonin (5-hydroxytryptamine (5HT)) transporter (5HT uptake) according to protocols described herein

For assay [2], the target named is T2, human α1A adrenergic receptor (Homo sapiens, UniProt P35348).
T2 construct: host or cells: LM(tk-) cells, line L-α1C
T2 sequence (P35348 1-466): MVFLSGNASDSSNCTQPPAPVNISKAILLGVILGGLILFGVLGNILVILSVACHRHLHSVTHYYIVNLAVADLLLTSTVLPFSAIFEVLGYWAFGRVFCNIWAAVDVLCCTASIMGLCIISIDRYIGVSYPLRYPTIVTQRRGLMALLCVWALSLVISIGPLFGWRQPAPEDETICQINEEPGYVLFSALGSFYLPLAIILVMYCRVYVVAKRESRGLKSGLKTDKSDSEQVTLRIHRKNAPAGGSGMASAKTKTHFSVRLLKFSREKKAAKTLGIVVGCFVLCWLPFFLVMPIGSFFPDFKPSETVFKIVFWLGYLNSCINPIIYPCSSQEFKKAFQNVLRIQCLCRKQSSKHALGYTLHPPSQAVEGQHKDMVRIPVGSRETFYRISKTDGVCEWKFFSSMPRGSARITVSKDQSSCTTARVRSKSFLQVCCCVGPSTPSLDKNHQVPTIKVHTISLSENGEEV
The assay can be described thus: Binding at human α1A adrenergic receptor. Conditions: Table 8; read-out: hα1A Ki.
Description: as §1, §2

The target in assay [3] is T3, human α1B adrenergic receptor (Homo sapiens, UniProt P35368).
T3 construct: host or cells: LM(tk-) cells, line L-α1B
T3 sequence (P35368 1-520): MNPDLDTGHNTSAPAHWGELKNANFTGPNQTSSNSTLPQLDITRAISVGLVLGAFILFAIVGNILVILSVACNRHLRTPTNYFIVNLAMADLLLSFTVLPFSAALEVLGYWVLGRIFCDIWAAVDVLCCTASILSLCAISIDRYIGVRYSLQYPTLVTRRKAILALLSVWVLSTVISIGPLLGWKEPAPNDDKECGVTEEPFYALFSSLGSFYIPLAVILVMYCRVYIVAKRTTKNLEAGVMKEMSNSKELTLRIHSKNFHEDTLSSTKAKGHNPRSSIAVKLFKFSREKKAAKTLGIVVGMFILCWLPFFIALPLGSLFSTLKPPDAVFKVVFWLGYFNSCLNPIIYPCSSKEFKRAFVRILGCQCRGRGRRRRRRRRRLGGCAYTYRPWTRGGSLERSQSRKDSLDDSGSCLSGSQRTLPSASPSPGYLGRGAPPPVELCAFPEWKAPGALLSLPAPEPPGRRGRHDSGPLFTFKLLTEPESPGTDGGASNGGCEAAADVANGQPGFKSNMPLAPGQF
The assay can be described thus: Binding at human α1B adrenergic receptor. Conditions: Table 8; read-out: hα1B Ki.
Description: as §1, §2

For assay [4], the target named is T4, rat NPFF2 receptor (Rattus norvegicus, UniProt Q9EQD2).
T4 construct: The full-length NPFF2 was amplified from rat spinal cord cDNA; expressed in transfected cells; host or cells: not given
The assay can be described thus: Functional assay (agonist potency, intrinsic activity) at cloned rat NPFF2 receptor. In kind it is cell-based. The conditions noted are these: Table 7, intrinsic activity.

T4 sequence (Q9EQD2 whole entry): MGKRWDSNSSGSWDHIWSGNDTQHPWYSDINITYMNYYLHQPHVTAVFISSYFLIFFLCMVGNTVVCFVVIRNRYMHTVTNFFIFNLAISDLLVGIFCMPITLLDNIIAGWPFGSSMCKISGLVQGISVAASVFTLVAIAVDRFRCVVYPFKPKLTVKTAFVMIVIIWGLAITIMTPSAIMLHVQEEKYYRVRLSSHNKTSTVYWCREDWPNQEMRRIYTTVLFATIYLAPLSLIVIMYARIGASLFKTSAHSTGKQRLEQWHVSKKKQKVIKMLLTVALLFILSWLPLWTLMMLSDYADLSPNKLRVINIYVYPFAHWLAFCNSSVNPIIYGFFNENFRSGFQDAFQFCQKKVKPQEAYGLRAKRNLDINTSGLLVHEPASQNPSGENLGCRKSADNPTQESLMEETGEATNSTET

As for `Cc1nc(NC(=N)N)nc2ccccc12` [Compound 1001A, N-(4-methyl-2-quinazolinyl)guanidine], the Ki in assay [1] came out at 12.9 µM; in assay [2] it was 5.03 µM; in assay [3], 9.86 µM. Further, the “rNPFF2 IA” value in assay [4] was determined as 16% NPFF.

By Ki is commonly meant the equilibrium dissociation constant of an inhibitor or competing ligand from its target.

These data come from US20030176314A1, “Compounds for the treatment of pain” (priority 2001, published 2003).
